Results reported in patent US20070128217A1 (priority 2003, published 2007).

Legend:
[1] = test system: rabbit serum obtained by immunizing a rabbit with the SARS-CoV strain Frankfurt 1; format: binding; set-up: Binding of a rabbit serum to linear peptides / Binding of a rabbit serum to looped peptides / Rabbit serum linear peptides / Rabbit serum looped peptides / Binding of a rabbit serum to linear peptides of protein N of SARS-CoV Urbani (Rabbit serum linear peptides) / Binding of a rabbit serum to looped/cyclic peptides of protein N of SARS-CoV Urbani (Rabbit serum looped peptides): unit not given here
[2] = test system: recombinant human anti-SARS-CoV antibody 03-018; format: binding; set-up: Binding of antibody 03-018 to linear peptides of the N protein of SARS-CoV Urbani / Binding of antibody 03-018 to looped/cyclic peptides of the N protein of SARS-CoV Urbani: unit not given here
[3] = test system: antibodies in sera from SARS patients (sera 1a, 1b, 2, 6, 37, 62, London, SARS-yellow, SARS-green); format: binding, human; set-up: Binding of serum 6 to linear peptides of protein X1 of SARS-CoV Urbani / Binding of serum 37 to linear peptides of protein X1 of SARS-CoV Urbani / Binding of serum 6 to looped/cyclic peptide (PEPSCAN-ELISA) / Binding of serum 37 to looped/cyclic peptide (PEPSCAN-ELISA) / Binding of serum 37 to looped/cyclic peptides of protein X1 of SARS-CoV Urbani / Binding of serum 6 to linear peptides of protein X2 / Binding of serum 37 to linear peptides of protein X2 / Binding of serum 37 to looped/cyclic peptides of protein X2 of SARS-CoV Urbani / Binding of serum 6 to linear peptides of protein M of SARS-CoV Urbani / Binding of serum 37 to linear peptides of protein M of SARS-CoV Urbani / Binding of serum 6 to looped/cyclic peptides of protein M of SARS-CoV Urbani / Binding of serum 37 to looped/cyclic peptides of protein M of SARS-CoV Urbani / Binding of serum 6 to linear peptides of protein X3 of SARS-CoV Urbani / Binding of serum 37 to linear peptides of protein X3 of SARS-CoV Urbani / Binding of serum 37 to looped/cyclic peptides of protein X3 of SARS-CoV Urbani / Binding of serum 6 to linear peptides of protein X4 of SARS-CoV Urbani / Binding of serum 37 to linear peptides of protein X4 of SARS-CoV Urbani / Binding of serum 37 to looped/cyclic peptides of protein X4 of SARS-CoV Urbani / Binding of serum 6 to linear peptides of protein X5 of SARS-CoV Urbani / Binding of serum 37 to linear peptides of protein X5 of SARS-CoV Urbani / Binding of serum 37 to looped/cyclic peptides of protein X5 of SARS-CoV Urbani / Binding of serum 6 to linear peptides of protein N of SARS-CoV Urbani / Binding of serum 37 to linear peptides of protein N of SARS-CoV Urbani / Binding of serum 6 to linear peptide (PEPSCAN-ELISA) / Binding of serum 1a to looped/cyclic peptides of protein N of SARS-CoV Urbani / Binding of serum 1b to looped/cyclic peptides of protein N of SARS-CoV Urbani / Binding of serum 2 to looped/cyclic peptides of protein N of SARS-CoV Urbani / Binding of serum 6 to looped/cyclic peptides of protein N of SARS-CoV Urbani / Binding of serum 37 to looped/cyclic peptides of protein N of SARS-CoV Urbani / Binding of serum 62 to looped/cyclic peptides of protein N of SARS-CoV Urbani / Binding of serum London to looped/cyclic peptides of protein N of SARS-CoV Urbani / Binding of serum SARS-green to looped/cyclic peptides of protein N of SARS-CoV Urbani: unit not given here

ATVLQLPQGTTLPKG
Binding of a rabbit serum to linear peptides of protein N of SARS-CoV Urbani (Rabbit serum linear peptides) [1]: 0.2 | Binding of a rabbit serum to looped/cyclic peptides of protein N of SARS-CoV Urbani (Rabbit serum looped peptides) [1]: 0.3 | Binding of antibody 03-018 to linear peptides of the N protein of SARS-CoV Urbani [2]: 0.1 | Binding of antibody 03-018 to looped/cyclic peptides of the N protein of SARS-CoV Urbani [2]: 0.2

DKDPQFKDNVILLNK
Binding of a rabbit serum to linear peptides of protein N of SARS-CoV Urbani (Rabbit serum linear peptides) [1]: 0.1 | Binding of a rabbit serum to looped/cyclic peptides of protein N of SARS-CoV Urbani (Rabbit serum looped peptides) [1]: 0.5 | Binding of antibody 03-018 to linear peptides of the N protein of SARS-CoV Urbani [2]: 0.1 | Binding of antibody 03-018 to looped/cyclic peptides of the N protein of SARS-CoV Urbani [2]: 0.4

PGSSRGNSPARMASG
Recognition of the peptide by the rabbit serum [1]: recognized | Binding of antibody 03-018 to linear peptides of the N protein of SARS-CoV Urbani [2]: 0.1 | Binding of antibody 03-018 to looped/cyclic peptides of the N protein of SARS-CoV Urbani [2]: 0.3 | Binding of serum 1a to linear peptide (PEPSCAN-ELISA) [3]: 0.3 | Binding of serum 1a to looped/cyclic peptides of protein N of SARS-CoV Urbani [3]: 0.4 | Binding of serum 1b to linear peptide (PEPSCAN-ELISA) [3]: 0.2 | Binding of serum 1b to looped/cyclic peptides of protein N of SARS-CoV Urbani [3]: 0.2 | Binding of serum 2 to linear peptide (PEPSCAN-ELISA) [3]: 0.3 | Binding of serum 2 to looped/cyclic peptides of protein N of SARS-CoV Urbani [3]: 0.5 | Binding of serum 6 to linear peptide (PEPSCAN-ELISA) [3]: 0.2 | Binding of serum 6 to looped/cyclic peptides of protein N of SARS-CoV Urbani [3]: 0.4 | Binding of serum 37 to linear peptide (PEPSCAN-ELISA) [3]: 0.6 | Binding of serum 37 to looped/cyclic peptides of protein N of SARS-CoV Urbani [3]: 0.6 | Binding of serum 62 to linear peptide (PEPSCAN-ELISA) [3]: 0.6 | Binding of serum 62 to looped/cyclic peptides of protein N of SARS-CoV Urbani [3]: 0.6 | Binding of serum London to linear peptide (PEPSCAN-ELISA) [3]: 0.5 | Binding of serum London to looped/cyclic peptides of protein N of SARS-CoV Urbani [3]: 0.5 | Binding of serum SARS-green to linear peptide (PEPSCAN-ELISA) [3]: 0.5 | Binding of serum SARS-green to looped/cyclic peptides of protein N of SARS-CoV Urbani [3]: 0.5 | Binding of serum SARS-yellow to linear peptide (PEPSCAN-ELISA) [3]: 0.7 | Binding of serum SARS-yellow to looped/cyclic peptides of protein N of SARS-CoV Urbani [3]: 0.4

GSSRGNSPARMASGG
Recognition of the peptide by the rabbit serum [1]: recognized | Binding of antibody 03-018 to linear peptides of the N protein of SARS-CoV Urbani [2]: 0.1 | Binding of antibody 03-018 to looped/cyclic peptides of the N protein of SARS-CoV Urbani [2]: 0.2 | Binding of serum 1a to linear peptide (PEPSCAN-ELISA) [3]: 0.4 | Binding of serum 1a to looped/cyclic peptides of protein N of SARS-CoV Urbani [3]: 0.4 | Binding of serum 1b to linear peptide (PEPSCAN-ELISA) [3]: 0.2 | Binding of serum 1b to looped/cyclic peptides of protein N of SARS-CoV Urbani [3]: 0.3 | Binding of serum 2 to linear peptide (PEPSCAN-ELISA) [3]: 0.2 | Binding of serum 2 to looped/cyclic peptides of protein N of SARS-CoV Urbani [3]: 0.7 | Binding of serum 6 to linear peptide (PEPSCAN-ELISA) [3]: 0.2 | Binding of serum 6 to looped/cyclic peptides of protein N of SARS-CoV Urbani [3]: 0.4 | Binding of serum 37 to linear peptide (PEPSCAN-ELISA) [3]: 0.5 | Binding of serum 37 to looped/cyclic peptides of protein N of SARS-CoV Urbani [3]: 0.6 | Binding of serum 62 to linear peptide (PEPSCAN-ELISA) [3]: 0.7 | Binding of serum 62 to looped/cyclic peptides of protein N of SARS-CoV Urbani [3]: 0.6 | Binding of serum London to linear peptide (PEPSCAN-ELISA) [3]: 0.5 | Binding of serum London to looped/cyclic peptides of protein N of SARS-CoV Urbani [3]: 0.9 | Binding of serum SARS-green to linear peptide (PEPSCAN-ELISA) [3]: 0.8 | Binding of serum SARS-green to looped/cyclic peptides of protein N of SARS-CoV Urbani [3]: 0.7 | Binding of serum SARS-yellow to linear peptide (PEPSCAN-ELISA) [3]: 0.7 | Binding of serum SARS-yellow to looped/cyclic peptides of protein N of SARS-CoV Urbani [3]: 0.5
